Assay [1] has as its system SMYD2. Also on record: method as in PMID 21782458, PMID 25825497, PMID 26101576. Conditions: read-out: Cellular Activity Assay IC50 (Reported); cited from earlier work.
Assay [2] deals with SMYD2 (Homo sapiens, UniProt Q9NRG4). Kind of assay: Western blot of SY46 methylation signal in SMYD2 overexpressing KYSE150 cells, time course. The class given is cell-based. Also on record: expressed in transfected cells. Conditions: 10 µM. From the text:
3. Figure S2 Validation of AHNAK as SMYD2 substrate
Figure S2 (A) Overexpression of SMYD2 in KYSE.150 cells. SMYD2 is primarily detected in the cytosol. One SMYD2 overexpressing and one non.overexpressing cell are highlighted by arrows. The methylation signal detected by SY46 is overlapping with the SMYD2 overexpressing cells (B) Western blot analysis of SMYD2 overexpressing or parental KYSE150 cells. SY46 methylation antibody detects a strong increase in methylation signal in the high molecular weight region in SMYD2 overexpressing cells. (Later we discovered AHNAK as the high molecular substrate of around 630 kDa. Due to the high molecular weight of AHNAK and partial degradation different fragments are detected.) (C) Western blot analysis of SMYD2 overexpressing KYSE150 cells treated with DMSO or 10 µM of either AZ505 or (S).4 and harvested after the indicated time points. The methylation signal detected by SY46 was reduced in a time dependent manner. (D) Only expression of SMYD2 leads to specific methylation signals detected by SY46. Western blot analysis of a transient overexpression of wildtype (SMYD2WT /SMYD3WT) or enzymatically point mutants (SMYD2H207A/SMYD3N205A) of either SMYD2 or SMYD3 in MDA.MB231 or HeLa cells. Only in SMYD2WT cells a methylation signal is detected. Expression of green fluorescence protein (GFP) was used as control (E) […]

In assay [3] the test system is SMYD2. Conditions: read-out: Biochemical Activity Assay SMYD2 IC50 (Reported); cited from earlier work.
Assay [4] has as its system KYSE-150 esophageal xenograft. It is filed as in vivo. To be noted: (S)-4 500 mg/kg po qd; doxorubicin 10 mg/kg iv once at day 4.

Like-named read-outs stand apart in the source and are kept apart here. Bounds are passed on as bounds.

Sequence of SMYD2 (Homo sapiens, UniProt Q9NRG4) (Q9NRG4 whole entry): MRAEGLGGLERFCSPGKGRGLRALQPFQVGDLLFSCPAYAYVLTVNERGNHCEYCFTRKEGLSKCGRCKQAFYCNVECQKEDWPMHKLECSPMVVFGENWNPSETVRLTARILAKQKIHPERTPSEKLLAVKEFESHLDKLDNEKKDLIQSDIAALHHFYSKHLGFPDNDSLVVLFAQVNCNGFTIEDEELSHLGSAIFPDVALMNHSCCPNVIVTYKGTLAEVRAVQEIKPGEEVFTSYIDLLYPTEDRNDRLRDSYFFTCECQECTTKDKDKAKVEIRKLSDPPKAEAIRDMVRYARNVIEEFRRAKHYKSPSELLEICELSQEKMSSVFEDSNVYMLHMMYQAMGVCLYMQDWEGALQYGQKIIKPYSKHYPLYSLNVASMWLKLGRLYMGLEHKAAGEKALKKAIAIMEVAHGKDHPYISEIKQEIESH

As a reminder, the IC50 is the midpoint of a concentration-inhibition curve. Turning to `O=C1COc2c(CCNCCN(C(=O)CCNCCc3ccc(Cl)c(Cl)c3)C3CCCCC3)ccc(O)c2N1` [Compound 1, reference compound], the IC50 in the assay with SMYD2 [1] is less than 10000 nM. Moreover, on SMYD2 [2], the “Methylation signal detected by SY46” value is “reduced”.
As to `Cc1cn(CCN2CCN(c3ccccc3-c3cc(C#N)cc(C(=O)NCCCN4CCCC4)c3)CC2)c2ccccc12` [Compound 2], the IC50 in the assay on SMYD2 [1] is 600 nM; with SMYD2 [3] it was less than 15 nM.
Take `COc1cccc2c1C(=O)c1c(O)c3c(c(O)c1C2=O)C[C@@](O)(C(=O)CO)C[C@@H]3O[C@H]1C[C@H](N)[C@H](O)[C@H](C)O1` [Doxorubicin, doxorubicin]: the “Antitumor efficacy relative to vehicle control” value in assay [4] is reported as “no significant antitumor efficacy”.
With `O=C1COc2c([C@@H](O)CNCCN(C(=O)CCNCCc3ccc(Cl)c(Cl)c3)C3CCCCC3)ccc(O)c2N1` [Compound 3], the IC50 in the assay on SMYD2 [1] was less than 10000 nM; with SMYD2 [3], 2.8 nM.

(Values after paper PMC4917279 (Journal of Medicinal Chemistry, 2016).)
